Results reported in patent US6977252B1, “Use of 1,4-benzothiazepine derivatives as drugs for overcoming resistance to anticancer drugs” (Noboru Kaneko, priority 1999, dated 2005).
Like-named read-outs stand apart in the source and are kept apart here. One block for each molecule: values may come before it.

What was measured:
[1] = system: K562 human promyelocytic leukemia cell line; assay: MTT cell growth inhibition by adriamycin with or without compound 1, K562; assay type: cell-based
Procedure: PC-14 as a human non-small cell lung cancer cell line and PC-14/CDDP as a cisplatin tolerant cell line thereof were used to examine an effect of overcoming each resistance to cisplatin, carboplatin, nedaplatin and taxol. PC-14 and PC-14/CDDP were made into a single cell in BPMI 1640 medium by trypsinization or by using a cell scraper, and prepared a cell suspension of 100 cells per 15 μl. The compound 1 dissolved in dimethyl sulfoxide was added therein to make final concentration of 10 μm, and then the resulting liquid was poured into a 96-perforated plate at 150 μl per well. An anticancer drug was dissolved in sterilized distilled water. The resulting liquid of 150 μl per well was poured into the first row to transfer in turn from the second row to the next rows by 150 μl for each raw so as to form two-fold dilution rows. A group without the cells was prepared as a negative control, and a group without the anticancer drug and the compound I was prepared as a positive control. […] Then, absorbed light of 562–630 nm was determined by using a multiplate reader. […]

[2] = system: K562/ADM adriamycin resistant cell line; assay: MTT cell growth inhibition by adriamycin with or without compound 1, K562/ADM; assay type: cell-based, human; details: for IC50: Homo sapiens, K562, K562/ADM, read-out: 50% cell growth inhibiting concentration (IC50) of adriamycin
Procedure: (§1) PC-14 as a human non-small cell lung cancer cell line and PC-14/CDDP as a cisplatin tolerant cell line thereof were used to examine an effect of overcoming each resistance to cisplatin, carboplatin, nedaplatin and taxol. PC-14 and PC-14/CDDP were made into a single cell in BPMI 1640 medium by trypsinization or by using a cell scraper, and prepared a cell suspension of 100 cells per 15 μl. The compound 1 dissolved in dimethyl sulfoxide was added therein to make final concentration of 10 μm, and then the resulting liquid was poured into a 96-perforated plate at 150 μl per well. An anticancer drug was dissolved in sterilized distilled water. The resulting liquid of 150 μl per well was poured into the first row to transfer in turn from the second row to the next rows by 150 μl for each raw so as to form two-fold dilution rows. A group without the cells was prepared as a negative control, and a group without the anticancer drug and the compound I was prepared as a positive control. After culturing at 37° C. under carbon dioxide having a concentration of 5% and saturated vapor for 96 hours, an MTT [3-(4,5-dimethylthiazol-2-yl)-2,5-diphenyltetrazolium bromide] reagent of 20 μl dissolved in D-PBS (−) at a concentration of 5 mg/ml was added to each of the groups, and the resulting liquid was cultured for another 4 hours at 37° C. After the completion of the culture, the entire plate was centrifuged, and the supernatant was removed. Dimethyl sulfoxide of 200 μl was added to dissolve formazan crystal generated by enzyme activities of mitochondria in the cells. Then, absorbed light of 562–630 nm was determined by using a multiplate reader. Given that the average growth rate of the negative control is 0% and the average growth rate of the positive control is 100%, a dose-growth curve was plotted to calculate […] cell growth inhibiting concentration (IC50).
K562 as a human […] cell line and K562/ADM as an adriamycin resistant cell line thereof were used to examine the effect of overcoming the resistance to adriamycin. […]

[3] = system: GB-1 human glioblastoma cell and U87-GM cell; details: GB-1 cell and U87-GM cell; cited from earlier work
[4] = system: B16a cell and B16a-Pt cell line; details: B16a cell and cisplatin-resistant B16a-Pt cell line; cited from earlier work
[5] = system: PC-14 human non-small cell lung cancer cell line; assay: MTT cell growth inhibition by anticancer drug with or without compound 1, PC-14; assay type: cell-based; details: read-out: 50% cell growth inhibiting concentration (IC50) of anticancer drug
Procedure: as §1

[6] = system: PC-14/CDDP cisplatin tolerant cell line; assay: MTT cell growth inhibition by anticancer drug with or without compound 1, PC-14/CDDP; assay type: cell-based, human; details: for IC50: PC-14/CDDP, MTT, read-out: 50% cell growth inhibiting concentration (IC50) of anticancer drug
Procedure: as §1

[7] = system: PC-14 tumor; assay: Tumor growth in nude mice implanted with PC-14; assay type: in vivo, nude mice BALB/c nu/nu; details: for Tumor growth rate GR: 11th
Procedure: (§2) Female nude mice BALB/c nu/nu (6-week-old) were implanted subcutaneously in each back with 2×10^7 of PC-14/CDDP and the parental cell line PC-14 suspended in physiological saline, then the progress of tumor were observed. On the 7th day from the implantation, tumor condition was checked to select and randomize testable individuals not to cause any deviation, and the selected mice were then divided into a control group and a test group. After each tumor volume was determined based on the formula: (tumor short diameter)^2×(tumor long diameter), administration of drug was started on the seventh day.
(§3) The compound 1 was used as a test compound, 1.2 mg of which was dissolved in 0.05 ml of dimethyl sulfoxide, and then combined with 0.95 ml of 5% sorbitol-0.2% citric acid 1 hydrate solution (pH3.3) to make uniform solution.
(§4) Cisplatin was used as an anticancer drug, and was dissolved in distilled water to prepare 1.6 mg/ml solution.
(§5) The administration process is carried out by simultaneous intravenous injections of 0.05 ml of the test compound and 0.05 ml of the anticancer-drug solution once a day on the 7th, 11th, 15th day after the tumor implantation. For the control group, 0.1 ml of physiological saline was administered by intravenous injection, and for the group to be administered only the anticancer drug, 0.05 ml of the anticancer-drug solution and 0.05 ml of physiological saline were administered by intravenous injection. One dose of the test compound was 3 mg/kg, and one dose of the anticancer drug was 4 mg/kg. During the administration of the drug, physical status of the whole body of the mice was observed, and the weight and the long/short lengths of tumor were measured. Tumor growth rate (GR) and effect of inhibiting cancer (lowest T/C) were calculated based on the following formulas, respectively. [formula] [formula]

[8] = system: PC-14/CDDP tumor; assay: Tumor growth in nude mice implanted with PC-14/CDDP; assay type: in vivo, nude mice BALB/c nu/nu; details: for lowest T/C / Tumor growth rate GR: PC-14/CDDP; for Tumor growth rate GR: 11th
Procedure: as §2, §3, §4, §5

[9] = system: KCP-4 cell isolated from human nasopharyngeal cancer KB cells; details: KCP-4 cisplatin-resistance cell; cited from earlier work
[10] = PC-14, with compound 1 (final concentration 10 μm), 96 hours
[11] = PC-14, without compound 1, 96 hours
[12] = with compound 1 (final concentration 10 μm), 96 hours

IC50 ([1]; K562, K562, with compound 1, n = 1, read-out: 50% cell growth inhibiting concentration (IC50) of adriamycin): 0.004 µM
IC50 ([1]; K562, K562, without compound 1, n = 1, read-out: 50% cell growth inhibiting concentration (IC50) of adriamycin): 0.008 µM
IC50 ([2]; with compound 1, n = 1): 0.166 µM
IC50 ([2]; without compound 1, n = 1): 1.15 µM
SMILES: COc1cccc2c1C(=O)c1c(O)c3c(c(O)c1C2=O)C[C@@](O)(C(=O)CO)C[C@@H]3O[C@H]1C[C@H](N)[C@H](O)[C@H](C)O1 [adriamycin]

SMILES: COC(=O)C1=C(C)NC(C)=C(C(=O)OC2CCCN(Cc3ccccc3)C2)C1c1cccc([N+](=O)[O-])c1 (centres unmarked) [benidipine]
drugs that enhance any significant antitumor effect of cisplatin [3]: none

SMILES: Clc1ccc(C(c2ccc(Cl)cc2)[n+]2ccn(CC(OCc3ccc(Cl)cc3Cl)c3ccc(Cl)cc3Cl)c2)cc1.[Cl-] (centres unmarked) [calmidazilium]
enhancement of antitumor effect of cisplatin [4]: do not exhibit any significant enhanced antitumor effect

SMILES: N.N.O=C([O-])C1(C(=O)[O-])CCC1.[Pt+2] [carboplatin]
IC50 [5, 10]: 29.5 ± 11.3 µM
IC50 [5, 11]: 37.1 ± 10.8 µM
IC50 [6, 12]: 26.1 ± 7.78 µM
IC50 ([6]; without compound 1, 96 hours): 143 ± 39.1 µM

SMILES: N.N.[Cl][Pt][Cl] [cisplatin]
IC50 [5, 10]: 1.77 ± 0.89 µM
IC50 [5, 11]: 2.4 ± 1.05 µM
IC50 [6, 12]: 2.16 ± 1.12 µM
IC50 ([6]; without compound 1, 96 hours): 18.6 ± 2.83 µM
lowest T/C ([7]; 11th day, PC-14, cisplatin 4 mg/kg i.v. with compound 1 3 mg/kg i.v.): 9.76%
lowest T/C ([7]; 11th day, PC-14, cisplatin 4 mg/kg i.v., without compound 1): 13.33%
lowest T/C ([7]; 15th day, PC-14, cisplatin 4 mg/kg i.v. with compound 1 3 mg/kg i.v.): 6.75%
lowest T/C ([7]; 15th day, PC-14, cisplatin 4 mg/kg i.v., without compound 1): 10.52%
Tumor growth rate GR ([7]; PC-14, cisplatin 4 mg/kg i.v. on 7th, 15th day, without compound 1): 874.30%
Tumor growth rate GR ([7]; PC-14, cisplatin 4 mg/kg i.v. with compound 1 3 mg/kg i.v. on 7th, 15th day): 753.32%
lowest T/C ([8]; 11th day, cisplatin 4 mg/kg i.v. with compound 1 3 mg/kg i.v.): 9.81%
lowest T/C ([8]; 11th day, cisplatin 4 mg/kg i.v., without compound 1): 20.64%
lowest T/C ([8]; 15th day, cisplatin 4 mg/kg i.v. with compound 1 3 mg/kg i.v.): 2.36%
lowest T/C ([8]; 15th day, cisplatin 4 mg/kg i.v., without compound 1): 8.47%
Tumor growth rate GR ([8]; cisplatin 4 mg/kg i.v. on 7th, 15th day, without compound 1): 478.43%
Tumor growth rate GR ([8]; cisplatin 4 mg/kg i.v. with compound 1 3 mg/kg i.v. on 7th, 15th day): 190.52%
resistance of KCP-4 cell to cisplatin [9]: about 63 fold

SMILES: COc1ccc2c(c1)CN(C(=O)CCN1CCC(Cc3ccccc3)CC1)CCS2 [compound 1, 4-[3-(4-benzylpiperidine-1-yl)propionyl]-7-methoxy-2,3,4,5-tetrahydro-1,4-benzothiazepine]
effect on resistance and sensitivity to anticancer drugs ([6]; cisplatin resistant lung cancer cell line PC-14/CDDP, compound 1 at 10 μm): shows the effect of reducing the resistance to and increasing the sensitivity to cisplatin, carboplatin, nedaplatin and taxol
effect on resistance and sensitivity to adriamycin ([2]; adriamycin resistant cell line K562/ADM): shows the effect of reducing the resistance to and increasing the sensitivity to adriamycin
effect of inhibiting tumor growth together with cisplatin ([8]; nude mice with PC-14/CDDP, compound 1 3 mg/kg with cisplatin 4 mg/kg i.v.): the effect of inhibiting tumor growth in the cisplatin resistant cancer cell line (PC-14/CDDP) was exhibited

SMILES: COc1ccc([C@@H]2Sc3ccccc3N(CCN(C)C)C(=O)[C@@H]2OC(C)=O)cc1 [diltiazem]
enhancement of antitumor effect of cisplatin [4]: do not exhibit any significant enhanced antitumor effect
drugs that enhance any significant antitumor effect of cisplatin [3]: none

SMILES: [NH2][Pt]1([NH2])[O]CC(=O)[O]1 [nedaplatin]
IC50 [5, 10]: 4.36 ± 1.53 µM
IC50 [5, 11]: 7.1 ± 1.53 µM
IC50 [6, 12]: 4.16 ± 1.28 µM
IC50 ([6]; without compound 1, 96 hours): 25.9 ± 8.12 µM

SMILES: COC(=O)C1=C(C#N)NC(C)=C(C(=O)OC(C)C)C1c1cccc([N+](=O)[O-])c1 (centres unmarked) [nilvadipine]
drugs that enhance any significant antitumor effect of cisplatin [3]: none

IC50 ([5]; Homo sapiens, PC-14, 96 h, PC-14, with compound 1 (final concentration 10 μm), 96 hours): 0.000663 µM
IC50 ([5]; Homo sapiens, PC-14, 96 h, PC-14, without compound 1, 96 hours): 0.00113 µM
SMILES: CC(=O)O[C@H]1C(=O)[C@@]2(C)[C@H]([C@H](OC(=O)c3ccccc3)[C@]3(O)C[C@H](OC(=O)[C@H](O)[C@@H](NC(=O)c4ccccc4)c4ccccc4)C(C)=C1C3(C)C)[C@]1(OC(C)=O)CO[C@@H]1C[C@@H]2O [taxol]
IC50 ([6]; Homo sapiens, PC-14, 96 h, with compound 1 (final concentration 10 μm), 96 hours): 1.73 µM
IC50 ([6]; Homo sapiens, PC-14, 96 h, without compound 1, 96 hours): 5.29 µM

SMILES: CN1CCN(CCCN2c3ccccc3Sc3ccc(C(F)(F)F)cc32)CC1 [trifluoperazine]
enhancement of antitumor effect of cisplatin [4]: do not exhibit any significant enhanced antitumor effect

SMILES: COc1ccc(CCN(C)CCCC(C#N)(c2ccc(OC)c(OC)c2)C(C)C)cc1OC (centres unmarked) [verapamil]
enhancement of antitumor effect of cisplatin [4]: do not exhibit any significant enhanced antitumor effect
drugs that enhance any significant antitumor effect of cisplatin [3]: none
